Source: US10421973B2, “Chemically inducible cucumber mosaic virus protein expression system” (THE REGENTS OF THE UNIVERSITY OF CALIFORNIA, priority 2006, dated 2019)
“Also recorded” adds a separate entry of the source. Like-named read-outs stand apart in the source and are kept apart here.

How the values were obtained:
[1] = system: transgenic plant cell cultures; assay: Effect of stabilizing agents and protease inhibitors on rAAT production in transgenic plant cell cultures; type: cell-based, Nicotiana benthamiana
Protocol: The effect of stabilizing agents (bacitracin, PVP, BSA, Pluronic F-68, and mannitol) and protease inhibitors (2-mercaptoethylamine-HCl, AEBSF, benzamidine-HCl and EDTA) on the rAAT production in transgenic plant cell cultures was also evaluated.

[2] = system: proteases in the cell cultured medium; assay: Effect of protease inhibitors and additives on human AAT degradation in cell-free CMViva conditioned medium; type: biochemical, Nicotiana benthamiana; conditions: for effect of protease inhibitor on human AAT degradation: 10 mM in 7 day old cell-free CMViva conditioned medium
Protocol: For the investigation of human AAT stability in plant cell cultures, human AAT was added to the cell-free conditioned medium to a final concentration of 2 mg/L and distributed into 6-well-plates. The cell-free conditioned medium was prepared by centrifuging and filtering (through a 0.22 μm filter) the plant cells from 7 day old CMViva cell cultures (pH 5.1). Various protease inhibitors including 2-mercaptoethylamine-HCl (aminopeptidase inhibitor), AEBSF (serine and cysteine proteases inhibitor), benzamidine-HCl (serine protease inhibitor), and EDTA (a metal ion chelator and metalloproteinase inhibitor) were added to the conditioned medium to a final concentration of 10 mM to assess their ability to retard the degradation of human AAT. In another treatment, the conditioned medium was also heated (in boiling water for 30 minutes) or the medium pH was adjusted (from original pH 5.1 to 6.4˜6.6) prior to the addition of human AAT to investigate the human AAT stability. The 6-well-plates containing human AAT in various conditioned medium (4 mL/well) were incubated on an orbital shaker at 140 rpm and 25[…] under ambient light. Samples were taken daily and stored at −80° for further ELISA, western blotting and band shift analysis.

[3] = transgenic plant cell cultures, data not shown

Structure (SMILES)	effect on total and functional rAAT production [1]	effect on total and functional rAAT production [1, 3]	effect of protease inhibitor on human AAT degradation [2]	effect of medium additive on stabilizing functional human AAT ([2]; cell-free conditioned medium, data not shown)
O=C(O)CN(CCN(CC(=O)O)CC(=O)O)CC(=O)O [EDTA]	no significant improvement			
Cl.NCCS [2-mercaptoethylamine-HCl]		no significant improvement	slightly inhibit human AAT degradation	
OC[C@@H](O)[C@@H](O)[C@H](O)[C@H](O)CO [mannitol]		no significant improvement		did not show significant effect
NCCc1ccc(S(=O)(=O)F)cc1 [AEBSF]		no significant improvement	highest ability to stabilize functional human AAT levels; also recorded: slightly inhibit human AAT degradation	
